{"source": "the NIST ThermoML archive (doi:10.1021/je200757a)", "key": {"[1]": {"experiment": "refractive index (Na D-line) (dimensionless)", "settings": "101.33 kPa, Liquid"}, "[2]": {"settings": "for viscosity / mass density: 101 kPa, Liquid; for viscosity: Capillary tube (Ostwald / Ubbelohde) method; for mass density: Vibrating tube method"}, "[3]": {"experiment": "xn = mol fraction of the nth substance listed", "settings": "x1 = 1; for viscosity / mass density: 101 kPa, Liquid; for viscosity: Capillary tube (Ostwald / Ubbelohde) method; for mass density: Vibrating tube method"}, "[4]": {"experiment": "refractive index (Na D-line) (dimensionless); xn = mol fraction of the nth substance listed", "settings": "101 kPa, Liquid, x1 = 1"}}, "note": "± gives the expanded uncertainty stated by the source."}
{"smiles": "CCCCCCCCCCCCC", "note": "[tridecane]", "values": [{"measurement": "refractive index", "setting": "[1]; 293.15 K", "value": "1.4253 ± 0.0013"}, {"measurement": "refractive index", "setting": "[1]; 303.15 K", "value": "1.4213 ± 0.0013"}, {"measurement": "surface tension liquid-gas", "setting": "[2]; 293.15 K", "value": "24.79 ± 0.34", "unit": "mN/m"}, {"measurement": "viscosity", "setting": "[2]; 293.15 K", "value": "1.894 ± 0.014", "unit": "mPa·s"}, {"measurement": "mass density", "setting": "[2]; 293.15 K", "value": "756.5 ± 0.2", "unit": "kg/m3"}, {"measurement": "viscosity", "setting": "[2]; 298.15 K", "value": "1.726 ± 0.013", "unit": "mPa·s"}, {"measurement": "mass density", "setting": "[2]; 298.15 K", "value": "752.9 ± 0.2", "unit": "kg/m3"}, {"measurement": "surface tension liquid-gas", "setting": "[2]; 303.15 K", "value": "24.08 ± 0.34", "unit": "mN/m"}, {"measurement": "viscosity", "setting": "[2]; 303.15 K", "value": "1.577 ± 0.012", "unit": "mPa·s"}, {"measurement": "mass density", "setting": "[2]; 303.15 K", "value": "749.3 ± 0.2", "unit": "kg/m3"}, {"measurement": "viscosity", "setting": "[2]; 313.15 K", "value": "1.325 ± 0.01", "unit": "mPa·s"}, {"measurement": "mass density", "setting": "[2]; 313.15 K", "value": "742.2 ± 0.2", "unit": "kg/m3"}]}
{"smiles": "CCCCCCCCCCCC", "note": "[dodecane]", "values": [{"measurement": "refractive index", "setting": "[1]; 293.15 K", "value": "1.4219 ± 0.0013"}, {"measurement": "refractive index", "setting": "[1]; 303.15 K", "value": "1.4168 ± 0.0013"}, {"measurement": "surface tension liquid-gas", "setting": "[2]; 293.15 K", "value": "24.07 ± 0.34", "unit": "mN/m"}, {"measurement": "viscosity", "setting": "[2]; 293.15 K", "value": "1.507 ± 0.012", "unit": "mPa·s"}, {"measurement": "mass density", "setting": "[2]; 293.15 K", "value": "748.6 ± 0.2", "unit": "kg/m3"}, {"measurement": "viscosity", "setting": "[2]; 298.15 K", "value": "1.377 ± 0.011", "unit": "mPa·s"}, {"measurement": "mass density", "setting": "[2]; 298.15 K", "value": "745 ± 0.2", "unit": "kg/m3"}, {"measurement": "surface tension liquid-gas", "setting": "[2]; 303.15 K", "value": "23.67 ± 0.34", "unit": "mN/m"}, {"measurement": "viscosity", "setting": "[2]; 303.15 K", "value": "1.266 ± 0.01", "unit": "mPa·s"}, {"measurement": "mass density", "setting": "[2]; 303.15 K", "value": "741.4 ± 0.2", "unit": "kg/m3"}, {"measurement": "viscosity", "setting": "[2]; 313.15 K", "value": "1.084 ± 0.009", "unit": "mPa·s"}, {"measurement": "mass density", "setting": "[2]; 313.15 K", "value": "734.1 ± 0.2", "unit": "kg/m3"}]}
{"smiles": "CCCCCCCCCCCC", "note": "[dodecane] + C1C[C@@H]2[C@H]3CC[C@H](C3)[C@@H]2C1", "values": [{"measurement": "surface tension liquid-gas", "setting": "[3]; 293.15 K", "value": "24.07 ± 0.34", "unit": "mN/m"}, {"measurement": "viscosity", "setting": "[3]; 293.15 K", "value": "1.507 ± 0.012", "unit": "mPa·s"}, {"measurement": "mass density", "setting": "[3]; 293.15 K", "value": "748.6 ± 0.2", "unit": "kg/m3"}, {"measurement": "viscosity", "setting": "[3]; 298.15 K", "value": "1.377 ± 0.011", "unit": "mPa·s"}, {"measurement": "mass density", "setting": "[3]; 298.15 K", "value": "745 ± 0.2", "unit": "kg/m3"}, {"measurement": "surface tension liquid-gas", "setting": "[3]; 303.15 K", "value": "23.67 ± 0.34", "unit": "mN/m"}, {"measurement": "viscosity", "setting": "[3]; 303.15 K", "value": "1.266 ± 0.01", "unit": "mPa·s"}, {"measurement": "mass density", "setting": "[3]; 303.15 K", "value": "741.4 ± 0.2", "unit": "kg/m3"}, {"measurement": "viscosity", "setting": "[3]; 313.15 K", "value": "1.084 ± 0.009", "unit": "mPa·s"}, {"measurement": "mass density", "setting": "[3]; 313.15 K", "value": "734.1 ± 0.2", "unit": "kg/m3"}, {"measurement": "refractive index", "setting": "[4]; 293.15 K", "value": "1.4219 ± 0.0013"}, {"measurement": "refractive index", "setting": "[4]; 303.15 K", "value": "1.4168 ± 0.0013"}]}
{"smiles": "CCCCCCCCC", "note": "[nonane] + C1C[C@@H]2[C@H]3CC[C@H](C3)[C@@H]2C1", "values": [{"measurement": "surface tension liquid-gas", "setting": "[3]; 293.15 K, Capillary rise", "value": "22.2 ± 0.24", "unit": "mN/m"}, {"measurement": "viscosity", "setting": "[3]; 293.15 K", "value": "0.733 ± 0.006", "unit": "mPa·s"}, {"measurement": "mass density", "setting": "[3]; 293.15 K", "value": "717.8 ± 0.3", "unit": "kg/m3"}, {"measurement": "viscosity", "setting": "[3]; 298.15 K", "value": "0.687 ± 0.006", "unit": "mPa·s"}, {"measurement": "mass density", "setting": "[3]; 298.15 K", "value": "713.9 ± 0.3", "unit": "kg/m3"}, {"measurement": "surface tension liquid-gas", "setting": "[3]; 303.15 K, Capillary rise", "value": "21.41 ± 0.23", "unit": "mN/m"}, {"measurement": "viscosity", "setting": "[3]; 303.15 K", "value": "0.647 ± 0.005", "unit": "mPa·s"}, {"measurement": "mass density", "setting": "[3]; 303.15 K", "value": "710 ± 0.3", "unit": "kg/m3"}, {"measurement": "viscosity", "setting": "[3]; 313.15 K", "value": "0.579 ± 0.005", "unit": "mPa·s"}, {"measurement": "mass density", "setting": "[3]; 313.15 K", "value": "702.1 ± 0.3", "unit": "kg/m3"}, {"measurement": "refractive index", "setting": "[4]; 293.15 K", "value": "1.4048 ± 0.0013"}, {"measurement": "refractive index", "setting": "[4]; 303.15 K", "value": "1.4001 ± 0.0013"}]}
{"smiles": "C1C[C@@H]2[C@H]3CC[C@H](C3)[C@@H]2C1", "note": "[exo-tetrahydrodicyclopentadiene]", "values": [{"measurement": "refractive index", "setting": "[1]; 293.15 K", "value": "1.4877 ± 0.0013"}, {"measurement": "refractive index", "setting": "[1]; 303.15 K", "value": "1.4832 ± 0.0013"}, {"measurement": "surface tension liquid-gas", "setting": "[2]; 293.15 K, Capillary rise", "value": "31.86 ± 0.38", "unit": "mN/m"}, {"measurement": "viscosity", "setting": "[2]; 293.15 K", "value": "3.077 ± 0.035", "unit": "mPa·s"}, {"measurement": "mass density", "setting": "[2]; 293.15 K", "value": "935.3 ± 0.8", "unit": "kg/m3"}, {"measurement": "viscosity", "setting": "[2]; 298.15 K", "value": "2.784 ± 0.032", "unit": "mPa·s"}, {"measurement": "mass density", "setting": "[2]; 298.15 K", "value": "931.4 ± 0.8", "unit": "kg/m3"}, {"measurement": "surface tension liquid-gas", "setting": "[2]; 303.15 K, Capillary rise", "value": "31.09 ± 0.38", "unit": "mN/m"}, {"measurement": "viscosity", "setting": "[2]; 303.15 K", "value": "2.525 ± 0.029", "unit": "mPa·s"}, {"measurement": "mass density", "setting": "[2]; 303.15 K", "value": "927.5 ± 0.8", "unit": "kg/m3"}, {"measurement": "viscosity", "setting": "[2]; 313.15 K", "value": "2.112 ± 0.024", "unit": "mPa·s"}, {"measurement": "mass density", "setting": "[2]; 313.15 K", "value": "919.6 ± 0.7", "unit": "kg/m3"}]}
{"smiles": "CCCCCCCCCCCCC", "note": "[tridecane] + C1C[C@@H]2[C@H]3CC[C@H](C3)[C@@H]2C1", "values": [{"measurement": "surface tension liquid-gas", "setting": "[3]; 293.15 K", "value": "24.79 ± 0.34", "unit": "mN/m"}, {"measurement": "viscosity", "setting": "[3]; 293.15 K", "value": "1.894 ± 0.014", "unit": "mPa·s"}, {"measurement": "mass density", "setting": "[3]; 293.15 K", "value": "756.5 ± 0.2", "unit": "kg/m3"}, {"measurement": "viscosity", "setting": "[3]; 298.15 K", "value": "1.726 ± 0.013", "unit": "mPa·s"}, {"measurement": "mass density", "setting": "[3]; 298.15 K", "value": "752.9 ± 0.2", "unit": "kg/m3"}, {"measurement": "surface tension liquid-gas", "setting": "[3]; 303.15 K", "value": "24.08 ± 0.34", "unit": "mN/m"}, {"measurement": "viscosity", "setting": "[3]; 303.15 K", "value": "1.577 ± 0.012", "unit": "mPa·s"}, {"measurement": "mass density", "setting": "[3]; 303.15 K", "value": "749.3 ± 0.2", "unit": "kg/m3"}, {"measurement": "viscosity", "setting": "[3]; 313.15 K", "value": "1.325 ± 0.01", "unit": "mPa·s"}, {"measurement": "mass density", "setting": "[3]; 313.15 K", "value": "742.2 ± 0.2", "unit": "kg/m3"}, {"measurement": "refractive index", "setting": "[4]; 293.15 K", "value": "1.4253 ± 0.0013"}, {"measurement": "refractive index", "setting": "[4]; 303.15 K", "value": "1.4213 ± 0.0013"}]}
{"smiles": "CCCCCCCCC", "note": "[nonane]", "values": [{"measurement": "refractive index", "setting": "[1]; 293.15 K", "value": "1.4048 ± 0.0013"}, {"measurement": "refractive index", "setting": "[1]; 303.15 K", "value": "1.4001 ± 0.0013"}, {"measurement": "surface tension liquid-gas", "setting": "[2]; 293.15 K, Capillary rise", "value": "22.2 ± 0.24", "unit": "mN/m"}, {"measurement": "viscosity", "setting": "[2]; 293.15 K", "value": "0.733 ± 0.006", "unit": "mPa·s"}, {"measurement": "mass density", "setting": "[2]; 293.15 K", "value": "717.8 ± 0.3", "unit": "kg/m3"}, {"measurement": "viscosity", "setting": "[2]; 298.15 K", "value": "0.687 ± 0.006", "unit": "mPa·s"}, {"measurement": "mass density", "setting": "[2]; 298.15 K", "value": "713.9 ± 0.3", "unit": "kg/m3"}, {"measurement": "surface tension liquid-gas", "setting": "[2]; 303.15 K, Capillary rise", "value": "21.41 ± 0.23", "unit": "mN/m"}, {"measurement": "viscosity", "setting": "[2]; 303.15 K", "value": "0.647 ± 0.005", "unit": "mPa·s"}, {"measurement": "mass density", "setting": "[2]; 303.15 K", "value": "710 ± 0.3", "unit": "kg/m3"}, {"measurement": "viscosity", "setting": "[2]; 313.15 K", "value": "0.579 ± 0.005", "unit": "mPa·s"}, {"measurement": "mass density", "setting": "[2]; 313.15 K", "value": "702.1 ± 0.3", "unit": "kg/m3"}]}
